Source: patent publication US20260131003A1, “Method and kit for treating skin infections” (Koite Health Oy, priority 2020, published 2026)

Test system: Staphylococcus aureus biofilm
Assay: Monospecies S. aureus biofilm model, light exposure after ICG incubation, CFU counting
Assay type: cell-based
Conditions: for reduction in bacterial counts: three-day maturated biofilm
Protocol: Monospecies S. Aureus biofilm model experiments were performed to study the effect of single, or recurring application of dual-light aPDT or its parts during the biofilm formation process. Flat-bottom Nunclon Delta well plates (Thermo Fisher Scientific Inc, US), were used, and the biofilm experiments were divided into different setups based on maturation age and the therapy given.
Applications of both single- and dual-light therapies were scheduled to mimic the daily use of antibacterial light therapy. The total amount of […] as kept unchanged in different treatment protocols, and the concentration of the ICG photosensitizer (if given) were identical. In the first setting, S. aureus biofilm was incubated for either one day or three days, and a single dose of light with ICG was applied at the end of the growth period. In the second setting, the biofilm was incubated for either three days or six days, and a daily dose of light ICG with was applied during incubation. In each setting, the last treatment was followed by plating onto brain heart infusion (BHI)-agar dishes for colony-forming unit (CFU) counting.
Staphylococcus Aureus bacteria were grown for 18 h in an incubator (NuAire DH autoflow 5500, NuAire inc, US), at +36 degrees C, 5% CO2 in BHI broth (Bio-Rad 3564014, Bio-Rad Laboratories, Inc, US). The resulting bacterial suspension was diluted with a 0.9% NaCl solution until an optical density (OD) of 0.46 was reached. The optical density was measured by a spectrophotometer (Varian Cary 100 Bio UV-VIS, Agilent Technologies, Inc, US), and then with a Den 1 McFarland Densitometer (Biosan, Riga, Latvia).
Biofilms were grown in flat-bottom 96-well plates (Thermo Fisher Scientific Inc, US) by placing 100 μl of 0.46 OD S. aureus suspension in each well, with 100 μl of BHI-broth growth medium. The well plates were then incubated in a growth chamber (36° C., 5% CO^2). The BHI-broth medium was changed daily to supply fresh growth medium and to wash away the debris. The change of the medium in each well was performed by removing 100 μl of the medium and replacing it with a similar amount of fresh BHI broth.
Before the light exposure took place, the growth medium was meticulously removed by pipetting and subsequently replaced with an equal amount of indocyanine green solution (Verdye, Diagnostic Green, GmBH), tittered to a concentration of 250 μg/ml. The indocyanine green was left to incubate at room temperature and in the dark for 10 minutes. After this incubation period, the biofilm was washed with a 0.9% NaCl solution. Then, the 0.9% solution of NaCl was added to each well to reach a total volume of 200 μl.
Light exposure was performed using specific, custom-made LED light sources (Lumichip Oy, Espoo, Finland). The exposure time was calculated from the determined light amount and known irradiances, which had been previously measured with a light energy meter (Thorlabs PM 100D with S121C sensor head, Thorlabs Inc, US) and a spectroradiometer (BTS256, Gigahertz-Optik GmbH, Germany), respectively. After the exposure, the BHI broth was changed and the plates were placed in the incubator, or, if the light exposure was final, the biofilm was scraped for CFU counting, as described below. Excitation lights were applied with two single-wave LED light sources with peak intensities at 810 nm or at 405 nm, and with a dual-wave LED light chip simultaneously producing two separate peak intensities at 405 nm and at 810 nm.
Antibacterial photodynamic therapy light exposure was administered at an 810-nm peak wavelength LED array on top of the well plate. The resulting light irradiance was 100 mW/cm^2, and the provided light energy was 100 J/cm^2. Antibacterial blue light was administered at a 405-nm peak wavelength LED array, with a resulting irradiance of 80 mW/cm^2, and resulting light energy of 100 J/cm^2. […]

In the case of `CC1(C)C(/C=C/C=C/C=C/C=C2\N(CCCCS(=O)(=O)O)c3ccc4ccccc4c3C2(C)C)=[N+](CCCCS(=O)(=O)[O-])c2ccc3ccccc3c21` [ICG, indocyanine green], the “antibacterial effectivity by dual-light relative energy ratio” value (1/4 NIR (810 nm) to 3/4 aBL (405 nm) compared with 1/1 and 3/4 NIR to 1/4 aBL, largest difference in 6-day daily treated biofilm) is reported as “most effective”, the “antibacterial efficacy of simultaneous ICG/810-nm aPDT and 405-nm aBL versus single-light aPDT or aBL” value (S. aureus biofilm, overall conclusion) is reported as “significantly improved antibacterial efficacy” and the “antibacterial efficiency of dual-light aPDT versus single light (CFU count)” value (one-day biofilm, single dose, ICG 250 μg/ml, 405 nm + 810 nm simultaneously, total 100 J/cm^2) is reported as “significantly more efficient than single-light aBL or aPDT”. The “antibacterial effect (CFU count)” value (one-day biofilm, single light dose, ICG 250 μg/ml, all modalities (single-light aPDT 810 nm, dual-light aPDT)) was “bactericidal”, the “reduction in bacterial counts” value (single exposure of aPDT (ICG 250 μg/ml, 810 nm, 100 J/cm^2)) was “four” and the “reduction in bacterial counts” value (single exposure of dual-light aPDT (ICG 250 μg/ml, 405 nm + 810 nm)) was “four”.
